The values below come from patent US4678782A, “3S-formamido azetidinone antibacterial agents, their preparation and use” (Beecham Group p.l.c., priority 1982, dated 1987).

What all share (format): cell-based
Assay [1] has as its system P. morganii. Nature of the assay: standard microtitre (MIC) test, P. morganii. The following applies: Morganella morganii. The text has this: (§1) In a standard microtitre (MIC) test, the compound of Example 14 gave the following data: […]
Assay [2] deals with S. marcescens US32. Nature of the assay: standard microtitre (MIC) test, S. marcescens US32. The following applies: Serratia marcescens.
Source text: as §1

In assay [3] the test system is E. cloacae N1. Nature of the assay: standard microtitre (MIC) test, E. cloacae N1. The following applies: Enterobacter cloacae.
Source text: as §1

Assay [4] relates to E. coli NCTC 10418. Nature of the assay: standard microtitre (MIC) test, E. coli NCTC 10418. The following applies: Escherichia coli, NCTC10418.
Source text: as §1

Assay [5] relates to E. coli JT4. Nature of the assay: standard microtitre (MIC) test, E. coli JT4. The following applies: Escherichia coli.
Source text: as §1

Assay [6] has as its system K. aerogenes A. Kind of assay: standard microtitre (MIC) test, K. aerogenes A. The following applies: Klebsiella aerogenes.
Source text: as §1

In assay [7] the test system is S. aureus Russell. Nature of the assay: standard microtitre (MIC) test, S. aureus Russell. The following applies: Staphylococcus aureus.
Source text: as §1

Take `CCN1CCN(C(=O)N[C@@H](C(=O)NC2(NC=O)CN(S(=O)(=O)O)C2=O)c2ccccc2)C(=O)C1=O` (stereo partly drawn) [Example 14, (3RS)-Potassium-3-[D-2-(4-Ethyl-2,3-dioxopiperazin-1-yl-carboxamido)-2-phenylacetamido]-3-formamido-2-oxo-azetidine-1-sulphonate]: the MIC in assay [1] was 6.4 mg/L; in assay [2], 12.5 mg/L; in assay [3], 12.5 mg/L; in assay [4], 12.5 mg/L; in assay [5], 25 mg/L; in assay [6] it was 3.2 mg/L. In assay [7], this compound came in with an MIC of 3.2 mg/L.
